In ChEMBL document CHEMBL1158884, “PSII inhibitory activity of resorcinolic lipids from Sorghum bicolor” (J Nat Prod, 2003):
Active and inactive are the calls of the source. The calls are words filed in the database; no cut-off is given here.

Key:
Lactuca sativa [1] = experiment: Phytotoxicity against Lactuca sativa assessed as inhibition of seedlings germination at 3.33 mM after 4 days; assay type: functional, organism-based
Lactuca sativa [2] = experiment: Phytotoxicity against Lactuca sativa assessed as inhibition of seedlings germination at 1.0 mM after 4 days; assay type: functional, organism-based
[3] = Inhibition of Photosystem 2 in spinach thylakoid membrane assessed as inhibition of photosynthetic oxygen evolution; assay type: cell membranes, Spinacia oleracea

SMILES | Activity (Lactuca sativa [1]) | Activity (Lactuca sativa [2]) | IC50 [3]
C=CC/C=C\C/C=C\CCCCCCCc1c(O)c(OC)cc(OC)c1O | Active | Active | 90 nM
C=CC/C=C\C/C=C\CCCCCCCC1=C(O)C(=O)C=C(OC)C1=O [SORGOLEONE] | Active |  | 90 nM
C=CC/C=C\C/C=C\CCCCCCCc1c(O)c(OC)cc(OCC)c1O [E565] |  |  | 200 nM
CN(C)C(=O)Nc1ccc(Cl)c(Cl)c1 [DCMU] |  |  | 230 nM
